Results from patent US9701670B2, “Pyrazolyl-ureas as kinase inhibitors” (RESPIVERT LIMITED, priority 2013, dated 2017).

Columns and labels:
GSK 3α = GSK 3α (Homo sapiens (Human), UniProt P49840); assay: GSK 3α enzyme inhibition (FRET, Z-LYTE), Method 2; assay type: biochemical; conditions: Method 2, different laboratory (Table 4a2); read-out: IC50 Values for Enzyme Inhibition GSK3α
Protocol: (§1) The enzyme inhibitory activities of compounds disclosed herein are determined by FRET using synthetic peptides labelled with both donor and acceptor fluorophores (Z-LYTE, Invitrogen Ltd., Paisley, UK).
The inhibitory activities of compounds of the invention against the GSK 3α enzyme isoform (Invitrogen), are evaluated by determining the level of activation/phosphorylation of the target peptide. The GSK3-α protein (500 ng/mL, 2.5 μL) is mixed with the test compound (2.5 μL at either 4 μg/mL, 0.4 μg/mL, 0.04 μg/mL, or 0.004 μg/mL) for 2 hr at RT. The FRET peptide (8 μM, 2.5 μL), which is a phosphorylation target for GSK3α, and ATP (40 μM, 2.5 μL) are then added to the enzyme/compound mixture and the resulting mixture incubated for 1 hr. Development reagent (protease, 5 μL) is added for 1 hr prior to detection in a fluorescence microplate reader (Varioskan® Flash, ThermoFisher Scientific).
(§2) In all cases, the site-specific protease cleaves non-phosphorylated peptide only and eliminates the FRET signal. Phosphorylation levels of each reaction are calculated using the ratio of coumarin emission (donor) over fluorescein emission (acceptor), for which high ratios indicate high phosphorylation and low ratios indicate low phosphorylation levels.

BDF1 mice = assay: (C) TNBS-induced colitis in mice; assay type: in vivo, mouse; parameters: TNBS Ulcer grade / TNBS LP inflammation: scale not given here; conditions: 2 days; for TNBS LP inflammation / TNBS Ulcer grade: mice
Protocol: Non-fasted, 10-12 week old, male BDF1 mice are dosed by oral gavage twice daily with either vehicle (5 mL/kg), reference item (Budesonide 2.5 mg/kg) or test compound (1, 5 or 50 mg/kg) one day before (Day −1) stimulation of the inflammatory response by treatment with 2,4,6-trinitrobenzenesulphonic acid (TNBS) (15 mg/mL in 50% ethanol/50% saline). On Day 0 of the study TNBS (200 μL) is administered intra-colonically via a plastic catheter followed by BID dosing of the vehicle, reference or test compound for 2 or 4 days. During the study animals are weighed every day and stool observations are made and recorded as a score, based on stool consistency. At the time of sacrifice on Day 2 (or Day 4) the large intestine is removed and the length and weight recorded. Sections of the colon are taken for either MPO analysis to determine neutrophil infiltration or for histopathology involving scoring to determine disease severity.

[1] = test system: Differentiated U937 cells; assay: (l) Cell viability: MTT assay; assay type: cell-based, human; conditions: 1 μg/mL
Summary of the method: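 Differentiated U937 cells were exposed to compound at 1 or 10 μg/mL either 4 h in 5% FCS RPMI1640 or 24 h in 10% FCS RPMI1640, then given MTT for 1 h, DMSO-solubilised and read at 550 nm. Percent viability loss versus 0.5% DMSO vehicle; apparent gains appear negative.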

[2] = test system: Intestinal mucosa biopsies from the inflamed regions of the colon of IBD patients; assay: (h) Human biopsy assay (cytokine release); assay type: cell-based
Protocol: Intestinal mucosa biopsies are obtained from the inflamed regions of the colon of IBD patients. The biopsy material is cut into small pieces (2-3 mm) and placed on steel grids in an organ culture chamber at 37° C. in a 5% CO2/95% O2 atmosphere in serum-free media. DMSO control or test compounds at the desired concentration are added to the tissue and incubated for 24 hr in the organ culture chamber. The supernatant is harvested for determination of IL-6, IL-8, […] and TNFα levels by R&D ELISA.

[3] = target: T1, p38 MAPKα isoform (MAPK14) (Homo sapiens (Human), UniProt Q16539); assay: p38 MAPKα enzyme inhibition (FRET, Z-LYTE), Method 2; assay type: biochemical; conditions: Method 2, different laboratory (Table 4a2)
Protocol: as §1
The inhibitory activities of test compounds against the p38 MAPKα isoform (MAPK14: Invitrogen), are evaluated indirectly by determining the level of activation/phosphorylation of the down-stream molecule, MAPKAP-K2. The p38 MAPKα protein (80 ng/mL, 2.5 μL) is mixed with the test compound (2.5 μL of either 4 μg/mL, 0.4 μg/mL, 0.04 μg/mL or 0.004 μg/mL) for 2 hr at RT. […] The mixture is incubated for 1 hr at RT. Development reagent (protease, 5 μL) is added for 1 hr prior to detection in a fluorescence microplate reader (Varioskan® Flash, ThermoFisher Scientific).
as §2

[4] = target: T1, p38 MAPKα isoform (MAPK14); assay: p38 MAPKα enzyme inhibition (FRET, Z-LYTE), Method 1; assay type: biochemical; conditions: Method 1 (Table 4a1)
[5] = test system: β-catenin in d-U937 cells; assay: (m) Accumulation of β catenin in d-U937 cells; assay type: cell-based, human
Protocol: U937 cells, a human monocytic cell line, are differentiated into macrophage-type cells by incubation with PMA; (100 ng/mL) for between 48 to 72 hr. The cells are then incubated with either final concentrations of test compound or vehicle for 18 hr. The induction of β-catenin by the test compounds is stopped by replacing the media with 4% formaldehyde solution. Endogenous peroxide activity is neutralised by incubating with quenching buffer (100 μL, 0.1% sodium azide, 1% H2O2 in PBS with 0.05% Tween-20) for 20 min. The cells are washed with washing buffer (200 μL; PBS containing 0.05% Tween-20) and incubated with blocking solution (200 μL; 5% milk in PBS) for 1 hr, re-washed with washing buffer (200 μL) and then incubated overnight with anti-β-catenin antibody solution (50 μL) in 1% BSA/PBS (BD, Oxford, UK).
After washing with washing buffer (3×200 μL; PBS containing 0.05% Tween-20), cells are incubated with an HRP-conjugated secondary antibody solution (100 μL) in 1% BSA/PBS (Dako, Cambridge, UK) and the resultant signal is determined colourimetrically (OD: 450 nm with a reference wavelength of 655 nm) using TMB substrate (50 μL; R&D Systems, Abingdon, UK). This reaction is stopped by addition of 1N H2SO4 solution (50 μL). Cells are then washed with washing buffer and 2% crystal violet solution (50 μL) is applied for 30 min. After washing with washing buffer (3×200 μL), 1% SDS (100 μL) is added to each well and the plates are shaken lightly for 1 hr prior to measuring the absorbance at 595 nm (Varioskan® Flash, Thermo-Fisher Scientific).
The measured OD450-655 readings are corrected for cell number by dividing the OD450-655 by the OD595 readings. […] A signal less than 0.15 (15%) of that observed for the standard control is designated as “-ve”.

T1 sequence (Q16539 whole entry, canonical isoform): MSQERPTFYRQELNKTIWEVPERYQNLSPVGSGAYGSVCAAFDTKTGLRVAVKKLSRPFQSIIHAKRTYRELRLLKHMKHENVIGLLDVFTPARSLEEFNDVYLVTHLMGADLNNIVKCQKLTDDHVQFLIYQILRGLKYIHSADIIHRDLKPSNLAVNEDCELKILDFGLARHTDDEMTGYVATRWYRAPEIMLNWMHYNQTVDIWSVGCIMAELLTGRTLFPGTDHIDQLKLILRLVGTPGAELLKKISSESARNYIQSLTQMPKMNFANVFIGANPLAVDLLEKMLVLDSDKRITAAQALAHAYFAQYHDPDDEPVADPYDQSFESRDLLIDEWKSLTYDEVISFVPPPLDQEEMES
Sequence of GSK 3α (P49840 whole entry): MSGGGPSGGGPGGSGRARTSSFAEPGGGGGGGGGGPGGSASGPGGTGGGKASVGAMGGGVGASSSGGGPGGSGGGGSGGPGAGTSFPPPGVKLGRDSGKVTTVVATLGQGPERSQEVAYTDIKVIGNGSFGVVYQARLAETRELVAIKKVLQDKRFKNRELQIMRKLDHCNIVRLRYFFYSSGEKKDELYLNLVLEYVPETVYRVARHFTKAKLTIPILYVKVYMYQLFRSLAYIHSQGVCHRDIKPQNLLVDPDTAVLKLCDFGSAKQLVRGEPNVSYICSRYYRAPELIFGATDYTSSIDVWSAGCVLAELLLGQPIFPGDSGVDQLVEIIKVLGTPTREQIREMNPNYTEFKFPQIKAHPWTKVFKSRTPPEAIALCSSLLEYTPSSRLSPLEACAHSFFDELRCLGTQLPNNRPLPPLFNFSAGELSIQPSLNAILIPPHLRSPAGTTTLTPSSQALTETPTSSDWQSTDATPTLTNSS

Row | SMILES | IC50 (GSK 3α) | Cell viability at time point in d-U937 cells 4 h [1] | Cell viability at time point in d-U937 cells 24 h [1] | IC50 [3] | IC50 [4] | also measured
1 | C#Cc1cc(Nc2nccc(Oc3ccc(NC(=O)Nc4cc(C(C)C)nn4-c4ccc(C)cc4)c(Cl)c3Cl)n2)cc(C(N)=O)c1 [Example 89, 3-((4-(2,3-Dichloro-4-(3-(3-isopropyl-1-(p-tolyl)-1H-pyrazol-5-yl)ureido)-phenoxy)pyrimidin-2-yl)amino)-5-ethynylbenzamide] | 15300 nM |  |  |  |  | 
2 | CCCC1O[C@@H]2C[C@H]3[C@@H]4CCC5=CC(=O)C=C[C@]5(C)[C@H]4[C@@H](O)C[C@]3(C)[C@]2(C(=O)CO)O1 (stereo partly drawn) [Budesonide, reference compound] |  |  |  |  |  | TNBS LP inflammation (BDF1 mice; 2.5 mg/kg oral BID): 2.5 ± 0.4; TNBS Ulcer grade (BDF1 mice; 2.5 mg/kg oral BID): 2.9 ± 0.6
3 | C#Cc1cc(Nc2nccc(Oc3ccc(NC(=O)Nc4cc(C(C)C)nn4-c4ccc(C)cc4)c4ccccc34)n2)cc(C(=O)NCCN2CCOCC2)c1 [Example 46, 3-ethynyl-5-((4-((4-(3-(3-isopropyl-1-(p-tolyl)-1H-pyrazol-5-yl)ureido)naphthalen-1-yl)oxy)pyrimidin-2-yl)amino)-N-(2-morpholinoethyl)benzamide] |  | −ve (−ve and +ve indicate that the value is below and above respectively, the no significant effect threshold, defined as 30% inhibition at 1 μg/mL at the time point indicated.) | −ve (−ve and +ve indicate that the value is below and above respectively, the no significant effect threshold, defined as 30% inhibition at 1 μg/mL at the time point indicated.) | 41 nM |  | histopathology analysis, in vivo model of colonic inflammation (BDF1 mice; TNBS-induced colitis, dosed orally at 5 mg/kg): significant activity; TNBS LP inflammation (BDF1 mice; 1 mg/kg oral BID): 3.1 ± 0.6; TNBS Ulcer grade (BDF1 mice; 1 mg/kg oral BID): 3.4 ± 0.6; TNBS LP inflammation (BDF1 mice; 5 mg/kg oral BID): 2.0 ± 0.5; TNBS Ulcer grade (BDF1 mice; 5 mg/kg oral BID): 2.4 ± 0.6; Cytokine release from biopsies of UC patients IL-1b release ([2]; 1 μg/mL, DMSO control 100%): 35 ± 14%; Cytokine release from biopsies of UC patients IL-6 release ([2]; 1 μg/mL, DMSO control 100%): 44 ± 38%; Cytokine release from biopsies of UC patients IL-8 release ([2]; 1 μg/mL, DMSO control 100%): 49 ± 35%; cytokine release from biopsies from ulcerative colitis (UC) patients ([2]; added to biopsies in vitro): markedly reduced IL-1b, IL-6 and IL-8 release
4 | COc1cc(C(=O)NCCN2CCOCC2)ccc1Nc1nccc(Oc2ccc(NC(=O)Nc3cc(C(C)C)nn3-c3ccc(C)cc3)c3ccccc23)n1 [Example 36, 4-((4-((4-(3-(3-isopropyl-1-(p-tolyl)-1H-pyrazol-5-yl)ureido)naphthalen-1-yl)oxy)pyrimidin-2-yl)amino)-3-methoxy-N-(2-morpholinoethyl)benzamide] | 13200 nM | −ve (−ve and +ve indicate that the value is below and above respectively, the no significant effect threshold, defined as 30% inhibition at 1 μg/mL at the time point indicated.) | −ve (−ve and +ve indicate that the value is below and above respectively, the no significant effect threshold, defined as 30% inhibition at 1 μg/mL at the time point indicated.) |  | 13 nM | 
5 | COc1cc(Nc2nccc(Oc3ccc(NC(=O)Nc4cc(C5CC5)nn4-c4ccc(C)cc4)c4ccccc34)n2)cc(C(=O)NCCN2CCOCC2)c1 [Example 50, 3-((4-((4-(3-(3-cyclopropyl-1-(p-tolyl)-1H-pyrazol-5-yl)ureido)naphthalen-1-yl)oxy)pyrimidin-2-yl)amino)-5-methoxy-N-(2-morpholinoethyl)benzamide] | 13300 nM | −ve (−ve and +ve indicate that the value is below and above respectively, the no significant effect threshold, defined as 30% inhibition at 1 μg/mL at the time point indicated.) | −ve (−ve and +ve indicate that the value is below and above respectively, the no significant effect threshold, defined as 30% inhibition at 1 μg/mL at the time point indicated.) |  | 2 nM | 
6 | CCc1cc(NC(=O)Nc2ccc(Oc3ccnc(Nc4cc(OC)cc(C(=O)NCCN5CCOCC5)c4)n3)c3ccccc23)n(-c2ccc(C)cc2)n1 [Example 49, 3-((4-((4-(3-(3-ethyl-1-(p-tolyl)-1H-pyrazol-5-yl)ureido)naphthalen-1-yl)oxy)pyrimidin-2-yl)amino)-5-methoxy-N-(2-morpholinoethyl)benzamide] | 13500 nM | −ve (−ve and +ve indicate that the value is below and above respectively, the no significant effect threshold, defined as 30% inhibition at 1 μg/mL at the time point indicated.) | −ve (−ve and +ve indicate that the value is below and above respectively, the no significant effect threshold, defined as 30% inhibition at 1 μg/mL at the time point indicated.) |  | 2 nM | 
7 | C#Cc1cc(Nc2nccc(Oc3ccc(NC(=O)Nc4cc(C(F)(F)C(F)(F)F)nn4-c4ccc(C)cc4)c4ccccc34)n2)cc(C(=O)NCCN2CCOCC2)c1 [Example 74, 3-Ethynyl-N-(2-morpholinoethyl)-5-((4-((4-(3-(3-(perfluoroethyl)-1-(p-tolyl)-1H-pyrazol-5-yl)ureido)naphthalen-1-yl)oxy)pyrimidin-2-yl)amino)benzamide] | 12100 nM |  |  | 1210 nM |  | 
8 | COCCNC(=O)c1cc(Nc2nccc(Oc3ccc(NC(=O)Nc4cc(C(C)C)nn4-c4ccc(OC)cc4)c4ccccc34)n2)cc(OC)c1 [Example 11, 3-((4-((4-(3-(3-Isopropyl-1-(4-methoxyphenyl)-1H-pyrazol-5-yl)ureido)naphthalen-1-yl)oxy)pyrimidin-2-yl)amino)-5-methoxy-N-(2-methoxyethyl)benzamide] |  | −ve (−ve and +ve indicate that the value is below and above respectively, the no significant effect threshold, defined as 30% inhibition at 1 μg/mL at the time point indicated.) | −ve (−ve and +ve indicate that the value is below and above respectively, the no significant effect threshold, defined as 30% inhibition at 1 μg/mL at the time point indicated.) | 104 nM | 25 nM | % β-catenin induction ([5]; 1 μg/mL test compound): −1%; % β-catenin induction ([5]; 5 μg/mL test compound): 1%; % β-catenin induction ([5]; 10 μg/mL test compound): 1%
